The conditions of data set [1]: omeprazole use versus non-omeprazole use, FDA Adverse Event Reporting System 2012 (Tamura, 2012); cited from earlier work.
Data set [2] in a line: Serum magnesium in CKD Stage 3 and Stage 5D after EffCaMgCit or calcium acetate. Format: in vivo, human.
The nature of data set [3]: Multi-dosing crossover trial on esomeprazole: post-load serum calcium. Particulars: for number of subjects with hypocalcemia or marginal hypocalcemia (serum calcium <9 mg/dL): of 22 subjects; for subjects with low or marginally low serum calcium (<9 mg/dL): baseline 18%. Format: in vivo, human. The procedure: (§1) The inventors conducted a multi-dosing trial, in which the effect of EffCaMgCit was compared with placebo in a crossover trial in 22 healthy subjects taking PPI at twice the usual dose (esomeprazole 40 mg/day) for 28 days, representing the recommended treatment format for erosive esophagitis-gastritis. During the EffCaMgCit phase, subjects took EffCaMgCit containing 19 meq calcium and 10 meq magnesium twice per day for 28 days. During the Placebo Phase, the subjects took placebo for 28 days. During both phases, the subjects took esomeprazole 40 mg per day. Blood samples were obtained 4 hours after EffCaMgCit dose (in multi-dosing trials with esomeprazole), rather than in the fasting state. Tamsen: no study with PPI in CKD. Peak absorption of calcium and magnesium occurs 2-4 hours after oral load. Thus, pharmacokinetic and pharmacodynamic effects of EffCaMgCit can best be captured in post-load samples.
A venous blood sample was obtained at 4 hours after the morning dose of EffCaMgCit or placebo, for the analysis of Ca, PTH, CTX and Mg after 2 weeks and 4 weeks of treatment. […] In the Placebo group (while on esomeprazole), a low or marginally low serum calcium (<9 mg/dL) was encountered in 23% of subjects at 2 weeks and in 18% of subjects at 4 weeks. […] Thus, not only did EffCaMgCit raise serum calcium, but it also corrected low or marginally low serum calcium. At two weeks of placebo (esomeprazole alone), a higher percentage of subjects had low or marginally low serum calcium than at baseline before esomeprazole (23% vs. 18%). Thus, a low or marginally low serum calcium developed during two weeks of esomeprazole therapy in an additional patient. This subject had normal serum calcium on EffCaMgCit (plus esomeprazole). FIGS. 1 and 2.

The subject of data set [4] is serum PTH. The data set is described as follows: Multi-dosing crossover trial on esomeprazole: post-load serum PTH. As to conditions: of 22 subjects, baseline 8. Format: in vivo, human. The procedure:
as §1
(§2) A venous blood sample was obtained at 4 hours after the morning dose of EffCaMgCit or placebo, for the analysis of Ca, PTH, CTX and Mg after 2 weeks and 4 weeks of treatment. […] In the Placebo group (while on esomeprazole), a low or marginally low serum calcium (<9 mg/dL) was encountered in 23% of subjects at 2 weeks and in 18% of subjects at 4 weeks. […] Thus, not only did EffCaMgCit raise serum calcium, but it also corrected low or marginally low serum calcium. […]

Data set [5] deals with serum CTX. Kind of data set: Multi-dosing crossover trial on esomeprazole: post-load serum CTX (bone resorption marker). Particulars: of 22 subjects. Also on record: dose or concentration left out as unconfirmed. Format: in vivo, human. As for the experimental part:
as §1, §2

Data set [6] can be described thus: Multi-dosing crossover trial on esomeprazole: post-load serum magnesium. Particulars: for number of subjects with hypomagnesemia or marginal hypomagnesemia (<2 mg/dL): of 22 subjects, baseline 2; for subjects with hypomagnesemia or marginal hypomagnesemia (<2 mg/dL): baseline 9%. Format: in vivo, human. The procedure: as §1
Serum magnesium was determined at 2 weeks and 4 weeks at 4 hours after the morning dose. […] At baseline (before starting esomeprazole), 9% of subjects had hypomagnesemia or marginal hypomagnesemia (<2 mg/dL). During treatment with placebo with esomeprazole, hypomagnesemia or marginal hypomagnesemia was found in a higher percentage of subjects (14% at 2 weeks, and 23% at 4 weeks). During treatment with EffCaMgCit with esomeprazole, no subjects had hypomagnesemia or marginal hypomagnesemia. FIGS. 7 and 8.

Data set [7] can be described thus: Multi-dosing crossover trial on esomeprazole: fractional excretion of magnesium (FEMg). Format: in vivo, human. As to conditions: from baseline over 2-4 weeks. The procedure:
as §1

Data set [8] in a line: Multi-dosing crossover trial on esomeprazole: 24-h urinary citrate and ammonium (acid load). As to conditions: after 2-4 weeks of treatment. Format: in vivo, human. As for the experimental part: as §1
24-h urinary citrate and ammonium, urinary markers of acid-base balance, were determined at baseline and after 2-4 weeks of treatment with esomeprazole (plus placebo) and after treatment with esomeprazole (plus EffCaMgCit). […] FIGS. 10 and 11.

For data set [9], the system named is serum FGF23. Kind of data set: Multi-dosing crossover trial on esomeprazole: post-load serum FGF23. Format: in vivo, human. As to conditions: 4 hours after morning dose, baseline to 4 weeks. As for the experimental part:
as §1

On to `COc1ccc2[nH]c([S+]([O-])Cc3ncc(C)c(OC)c3C)nc2c1` (centres unmarked) [omeprazole], for which, in data set [1], the “odds ratio of hypomagnesemia” value is 2.76.

With `CC(=O)[O-].CC(=O)[O-].[Ca+2]` [calcium acetate], the “serum magnesium after treatment” value in data set [2] (CKD Stage 3, data not shown) was “did not change”. The “serum Mg after treatment” value in data set [2] (CKD Stage 5D without residual renal function) is “did not”.

Regarding `COc1ccc2nc([S@@+]([O-])Cc3ncc(C)c(OC)c3C)[nH]c2c1` [esomeprazole], the “number of subjects with hypocalcemia or marginal hypocalcemia (serum calcium <9 mg/dL)” value was 4 subjects in data set [3] (after 4 weeks) and 5 subjects in data set [3] (at 2 weeks). Moreover, the results for the “subjects with low or marginally low serum calcium (<9 mg/dL)” value in data set [3] (at 2 weeks) and in [3] (at 4 weeks) were 23% and 18%, respectively. Besides, the “number of subjects with high serum PTH (>65 pg/ml)” value in [4] (at 2 weeks) stood at 15 subjects; in data set [4] (at 4 weeks), 10 subjects. Besides, the “number of subjects with high serum CTX (upper normal limit)” value in data set [5] (at 2 weeks) and in data set [5] (at 4 weeks) was “Six” in each case. In addition, the “number of subjects with hypomagnesemia or marginal hypomagnesemia (<2 mg/dL)” value in [6] (at 2 weeks) is reported as 3 subjects; in data set [6] (at 4 weeks) it was 5 subjects. Moreover, the “subjects with hypomagnesemia or marginal hypomagnesemia (<2 mg/dL)” value is recorded as 14% in data set [6] (at 2 weeks) and 23% in data set [6] (at 4 weeks). For the same molecule, the “FEMg, change during treatment” value in [7] is recorded as “trended downward”. Moreover, the “24-h urinary ammonium compared with baseline” value in [8] is given as “marginally higher”. For the same molecule, the “24-h urinary citrate compared with baseline” value in data set [8] was “significantly lower”. For the same molecule, the “serum FGF23, change from Baseline” value in data set [9] is “trend toward a decline”; in [9] (listed as PPI), “tended to rise”.

The values are drawn from patent publication US20200078395A1, “AVERTING COMPLICATIONS OF PUMP INHIBITOR THERAPY BY EFFERVESCENT CALCIUM MAGNESIUM CITRATE” (THE BOARD OF REGENTS OF THE UNIVERSITY OF TEXAS SYSTEM, priority 2018, published 2020).
